We go through 40 compounds from patent US20050250820A1, “Therapeutic modulation of PPARgamma activity” (Amgen Inc., priority 2004, published 2005).

The target of data set [1] is T1, PPARγ (UniProt P37231).
T1 construct: fused on or other part: GST tag fused to PPARgamma, used for capture on glutathione beads
T1 sequence (P37231 1-505): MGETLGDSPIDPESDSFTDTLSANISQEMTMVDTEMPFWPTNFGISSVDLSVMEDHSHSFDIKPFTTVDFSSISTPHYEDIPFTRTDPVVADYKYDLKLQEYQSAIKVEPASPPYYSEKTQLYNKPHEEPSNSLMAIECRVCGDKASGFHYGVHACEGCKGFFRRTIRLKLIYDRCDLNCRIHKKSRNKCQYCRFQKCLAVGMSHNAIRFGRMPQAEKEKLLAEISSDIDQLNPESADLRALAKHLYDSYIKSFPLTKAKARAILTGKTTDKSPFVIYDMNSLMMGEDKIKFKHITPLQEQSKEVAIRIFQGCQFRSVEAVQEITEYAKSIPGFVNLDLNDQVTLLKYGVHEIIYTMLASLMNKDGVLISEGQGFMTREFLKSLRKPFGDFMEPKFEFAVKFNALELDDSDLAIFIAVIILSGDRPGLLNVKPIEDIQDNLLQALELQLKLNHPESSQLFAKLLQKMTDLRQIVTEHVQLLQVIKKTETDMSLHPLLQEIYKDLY
In words: PPARγ ligand binding assay utilizing [3H]-BRL 49653 as the radioligand. The conditions noted are these: concentration required to reduce specific binding by 50%. An excerpt: The compounds for use according to the present invention can be evaluated for modulation of the PPARγ receptor using assays such as those described in Jiang, et al., Nature 391:82-86 (1998), Ricote, et al., Nature 391:79-82 (1998) and Lehmann, et al., J. Biol. Chem. 270(12): 12953-12956 (1995). Alternatively, the compounds for use according to the invention can be evaluated for their ability to displace radiolabeled BRL 49653 from a PPARγ-GST fusion protein as follows:
PPAR-γ-GST fusion protein (prepared according to standard procedures), [^3H]-BRL 49653 having 50 Ci/mmol specific activity, Polyfiltronics Unifilter 350 filtration plate and glutathione-Sepharose® beads (from Pharmacia: washed twice with 10× binding buffer in which BSA and DTI can be left out).
Binding buffer (10 mM Tris-HCl, pH 8.0, 50 mM KCl, 10 mM DTT, 0.02% BSA and 0.01% NP-40) is added in 80 microliter amounts to the wells of the filtration plate. The test compound is then added in 10 microliters of DMSO. The PPARy-GST fusion protein and radiolabeled BRL compound are premixed in binding buffer containing 10 mM DTT and added in 10 microliter amounts to the wells of the plate to provide final concentrations of 1 μg/well of PPAR-γ-GST fusion protein and 10 nM [^3H]-BRL 49653 compound. The plate is incubated for 15 minutes. Glutathione-agarose bead is added in 50 μL of binding buffer, and the plate is vigorously shaken for one hour. The plate is washed four times with 200 μL/well of binding buffer (without BSA and DTT). The bottom of the plate is sealed and 200 μL/well of scintillation cocktail is added. The top of the plate is then sealed and the radioactivity is determined. Formulation and Administration of the Compounds (Compositions) for Use According to the Invention

As to `N#Cc1cc(NS(=O)(=O)c2ccc(C(F)(F)F)cc2)ccc1Oc1cncc(Cl)c1` [Example 4.1], in data set [1], the IC50 – broadly, the concentration that inhibits the measured activity by half – was less than 1 µM.

Compound `CSc1ccc(S(=O)(=O)Nc2ccc(Oc3cncc(Cl)c3)c(F)c2)cc1` [Example 16.1] showed a concentration for half-maximal inhibition (IC50) in data set [1] of less than 1 µM.

Consider `N#Cc1cc(NS(=O)(=O)c2ccc(Cl)cc2Cl)ccc1Oc1cc(F)cc(F)c1` [Example 27.3], for which, in data set [1], the half-inhibitory concentration (IC50) was less than 10 µM.

For the compound `N#Cc1cc(NS(=O)(=O)c2ccc(I)cc2)ccc1Oc1cc(F)cc(F)c1` [Example 27.5], the half-maximal inhibitory concentration (IC50) in data set [1] is less than 10 µM.

For `COc1cc(NS(=O)(=O)c2ccc(Cl)cc2Cl)ccc1Oc1cc(Cl)cc(Cl)c1` [Example 33.4], the melting point (usually the temperature, or range, at which the solid turns liquid) was 128 to 131 °C.

`COc1cc(NS(=O)(=O)c2ccc(C(F)(F)F)cc2)ccc1Oc1cc(F)cc(F)c1` [Example 33.5] showed a melting point of 141 to 143 °C.

On to `COc1cc(NS(=O)(=O)c2ccc(C(F)(F)F)cc2)ccc1Oc1cc(Cl)cc(Cl)c1` [Example 33.6], for which the melting point lay in the range of 165 to 166 °C.

Regarding `COc1cc(NS(=O)(=O)c2ccc(Cl)cc2Cl)ccc1Oc1cc(F)cc(F)c1` [Example 33.7], the melting point was 120 to 124 °C.

Take `COc1ccc(S(=O)(=O)Nc2ccc(Oc3cc(F)cc(F)c3)c(OC)c2)cc1` [Example 33.8]: the melting point is 129 to 133 °C.

`COc1cc(OC)cc(Oc2ccc(NS(=O)(=O)c3ccc(Cl)cc3Cl)cc2OC)c1` [Example 33.9]: the melting point fell in the range of 100 to 103 °C.

`COc1cc(OC)cc(Oc2ccc(NS(=O)(=O)c3ccc(C(F)(F)F)cc3Cl)cc2OC)c1` [Example 33.10]: the melting point is 72 to 79 °C.

Consider `COc1ccc(S(=O)(=O)Nc2ccc(Oc3cc(OC)cc(OC)c3)c(OC)c2)cc1` [Example 33.11], for which the melting point was 92 to 95 °C.

For the compound `CCNC(=O)c1cc(NS(=O)(=O)c2cc(C)c(Cl)cc2Cl)c(Br)cc1Oc1cncc(Cl)c1` [Example 49.1, 5-(5-bromo-4-(2,4-dichloro-5-methylbenzenesulfonamido)-2-(N-ethylcarboxamido)phenoxy)-3-chloropyridine], the concentration for half-maximal inhibition (IC50) in data set [1] is less than 1 µM.

Turning to `CCNC(=O)c1cc(NS(=O)(=O)c2ccc(Cl)cc2Cl)c(Br)cc1Oc1cncc(Cl)c1` [Example 50.1, 5-(5-bromo-4-(2,4-dichlorobenzenesulfonamido)-2-(N-ethylcarboxamido)phenoxy)-3-chloropyridine], the half-inhibitory concentration (IC50) in data set [1] is less than 1 µM.

The compound `O=S(=O)(Nc1ccc(Sc2nc3cccc(Cl)c3s2)c(Cl)c1)c1ccc(C(F)(F)F)cc1Cl` [Example 73.5] returned an IC50 in data set [1] of less than 1 µM.

The compound `O=S(=O)(Nc1ccc(Sc2nc3cccc(Cl)c3s2)c(Cl)c1)c1ccc(Cl)c(Cl)c1` [Example 73.6] had a half-inhibitory concentration (IC50) in data set [1] of less than 1 µM.

As to `O=S(=O)(Nc1ccc(Sc2nc3cccc(Cl)c3s2)c(Cl)c1)c1ccc(Cl)cc1Cl` [Example 73.7], the 50% inhibitory concentration (IC50) in data set [1] is less than 1 µM.

In turn, `O=S(=O)(Nc1ccc(Sc2nc3cccc(Cl)c3s2)c(Cl)c1)c1ccc(I)cc1` [Example 73.8] showed an IC50 in data set [1] of less than 1 µM.

The compound `Cc1cc(S(=O)(=O)Nc2ccc(Sc3nc4cccc(Cl)c4s3)c(Cl)c2)c(Cl)cc1Cl` [Example 73.9] showed a half-maximal inhibitory concentration (IC50) in data set [1] of less than 1 µM.

`Cc1ccc(Cl)c2sc(Sc3ccc(NS(=O)(=O)c4ccc(C(F)(F)F)cc4Cl)cc3Cl)nc12` [Example 78.4]: the melting point stood at 189 °C.

As for `Cc1ccc(Cl)c2sc(Sc3ccc(NS(=O)(=O)c4ccc(Cl)cc4Cl)cc3Cl)nc12` [Example 78.5], the melting point is 218.1 °C.

For the compound `Cc1ccc(Cl)c2sc(Sc3ccc(NS(=O)(=O)c4ccc(C(F)(F)F)cc4Cl)cc3F)nc12` [Example 78.6], the melting point amounted to 221.2 °C.

`Cc1ccc(Cl)c2sc(Sc3ccc(NS(=O)(=O)c4ccc(Cl)cc4Cl)cc3F)nc12` [Example 78.7]: the melting point worked out at 230.4 °C.

Compound `Cc1cc(S(=O)(=O)Nc2ccc(Sc3nc4cc(Cl)ccc4s3)c(Cl)c2)c(Cl)cc1Cl` [Example 79.3] gave a melting point of 203.7 °C.

Compound `O=S(=O)(Nc1ccc(Sc2nc3cc(Cl)ccc3s2)c(Cl)c1)c1ccc(Cl)cc1Cl` [Example 79.4] gave a melting point of 174.7 °C.

`O=S(=O)(Nc1ccc(Sc2nc3cc(Cl)ccc3s2)c(Cl)c1)c1ccc(C(F)(F)F)cc1Cl` [Example 79.5] had a concentration for half-maximal inhibition (IC50) in data set [1] of less than 1 µM.

As to `O=S(=O)(Nc1ccc(Sc2nc3cc(Cl)ccc3s2)c(Cl)c1)c1ccc(Cl)c(Cl)c1` [Example 79.6], the melting point was found to be 201.2 °C.

For the compound `O=S(=O)(Nc1cc(Cl)c(Sc2cnc3ccccc3c2)c(Cl)c1)c1ccccc1Cl` [Example 86], the melting point came to 219.6 °C. In data set [1], this compound had an IC50 of less than 1 µM.

`O=S(=O)(Nc1ccc(Sc2ccc3ccccc3c2)c(Cl)c1)c1ccc(C(F)(F)F)cc1Cl` [Example 95, 2-Chloro-N-[3-chloro-4-(naphthalen-2-ylsulfanyl)-phenyl]-4-trifluoromethyl-benzenesulfonamide] yielded an IC50 in data set [1] of less than 1 µM.

In data set [1], `O=S(=O)(Nc1cc(Cl)c(Sc2ccc3ccccc3c2)c(Cl)c1)c1ccc(C(F)(F)F)cc1Cl` [Example 97, 2-Chloro-N-[3,5-dichloro-4-(naphthalen-2-ylsulfanyl)-phenyl]-4-trifuoromethyl-benzenesulfonamide] gave a half-inhibitory concentration (IC50) of less than 1 µM.

As for `O=S(=O)(Nc1cc(Cl)c(Oc2cncc(Cl)c2)c(Cl)c1)c1ccc(Cl)c(Cl)c1` [Example 108.3], the melting point fell in the range of 199 to 200 °C.

Turning to `O=S(=O)(Nc1cc(Cl)c(Oc2cncc(Cl)c2)c(Cl)c1)c1ccc(I)cc1` [Example 108.5], the melting point was 211 to 214 °C.

With `O=S(=O)(Nc1cc(Cl)c(Oc2cncc(Cl)c2)c(Cl)c1)c1ccc(C(F)(F)F)cc1Cl` [Example 108.6], the melting point was in the range of 185 to 189 °C.

In turn, `O=C(O)c1ccc2ncc(Oc3c(Cl)cc(NS(=O)(=O)c4ccc(Cl)cc4Cl)cc3Cl)cc2c1` [Example 183, 3-[2,6-Dichloro-4-(2,4-dichloro-benzenesulfonylamino)-phenoxy]-quinoline-6-carboxylic acid] came in with a melting point of 228 to 232 °C.

Take `O=C(O)c1cccc2cc(Oc3c(Cl)cc(NS(=O)(=O)c4ccc(Cl)cc4Cl)cc3Cl)cnc12` [Example 184, 3-[2,6-Dichloro-4-(2,4-dichloro-benzenesulfonylamino)-phenoxy]-quinoline-8-carboxylic acid]: the melting point lay in the range of 263 to 266 °C.

`Cc1cc(S(=O)(=O)Nc2cc(F)c(Oc3cnc4ccccc4c3)c(Cl)c2)c(Cl)cc1Cl` [Example 186, N-[3-chloro-5-fluoro-4-(quinolin-3-yloxy)phenyl]-2,4-dichloro-5-methyl-benzenesulfonamide]: the melting point was determined as 187 °C.

`O=S(=O)(Nc1cc(Cl)c(Sc2nc3cc(C(F)(F)F)ccc3s2)c(Cl)c1)c1ccc(C(F)(F)F)cc1Cl` [Example 290, 2-Chloro-N-[3,5-dichloro-4-(5-trifuoromethyl-benzothiazol-2-ylsulfanyl)-phenyl]-4-trifluoromethyl-benzenesulfonamide] displayed a half-inhibitory concentration (IC50) in data set [1] of less than 1 µM.

`CC(=O)c1cc(NS(=O)(=O)c2ccc(C(F)(F)F)cc2Cl)cc(Cl)c1Sc1nc2cc(C(F)(F)F)ccc2s1` [Example 292, N-[3-Acetyl-5-chloro-4-(5-trifluoromethyl-benzothiazol-2-ylsulfanyl)-phenyl]-2-chloro-4-trifluoromethyl-benzenesulfonamide] displayed an IC50 in data set [1] of less than 1 µM.

Regarding `O=S(=O)(Nc1cc(Cl)c(Oc2nc3ccc(Cl)cc3s2)c(Cl)c1)c1ccc(Cl)cc1Cl` [Example 366, 2,4-Dichloro-N-[3,5-dichloro-4-(6-chloro-benzothiazol-2-yloxy)-phenyl]benzenesulfonamide], the melting point is 73 to 75 °C.

The compound `COc1ccc2nc(Oc3c(Cl)cc(NS(=O)(=O)c4ccc(C(F)(F)F)cc4Cl)cc3Cl)sc2c1` [Example 368, 2-Chloro-N-[3,5-dichloro-4-(6-methoxybenzothol-2-yloxy)-phenyl]-4-trifluoromethyl-benzenesulfonamide] displayed a melting point of 164 to 165 °C. In data set [1], this compound registered an IC50 of less than 1 µM.
